From patent publication US20230365595A1, “INHIBITORS OF KRAS(G12D)” (Ranok Therapeutics (Hangzhou) Co. Ltd., priority 2022, published 2023)

How the values were obtained:
[1] = Oral bioavailability in CD-1 mice; settings: male, CD-1, mouse, blood, 50 mg/kg
Method: (§3) CD-1 mice were randomly assigned to δgroups with 3 male mice in each compound group. […] Compounds were orally administered (PO) in a single dose to each mouse in its group. Blood samples were taken within 72 hours. Bioavailability (F%) was determined and by liquid chromatography-mass spectrometry (LC-MS/MS).

AGS cells = test: CellTiter-Glo cell cytotoxicity, AGS; assay type: cell-based; settings: AGS human gastric adenocarcinoma, 1 copy of KRAS(G12D), read-out: AGS 72H CTG
Method: (§1) The following cancer cell lines were employed: A427 human lung carcinoma [1 copy of KRAS(G12D)] (ATCC, #HTB-53); AGS human gastric adenocarcinoma [1 copy of KRAS(G12D)] (ATCC, #CRL-1739); and AsPC-1 human adenocarcinoma [2 copies of KRAS(G12D)] (ATCC, CRL-1682). Cell lines were cultured essentially according to American Type Culture Collection (ATCC) recommendations.
A427 and AGS cells were plated in 96-well tissue culture plates at 4,000 cells/well and incubated at 37° C/5% CO2 for 72 hr in 100 μl of media. 3-fold serial dilutions of each test compound were prepared ranging from 20 μM to 1.02 nM. […]
(§2) […] 100 Ill of CellTiter-Glo® Reagent (Promega Corporation, Madison, WI) was added to each well and processed according manufacturer's protocol. Results were analyzed and IC50 values were calculated in GraphPad 7 software.

A427 cells = test: CellTiter-Glo cell cytotoxicity, A427; assay type: cell-based; settings: A-427, 72 h, A427 human lung carcinoma, 1 copy of KRAS(G12D), read-out: A427 72H CTG
Method: as §1
A427 and AGS cells were plated in 96-well tissue culture plates at 4,000 cells/well and incubated at 37° C/5% CO2 for 72 hr in 100 μl of media. 3-fold serial dilutions of each test compound were prepared ranging from 20 μM to 1.02 nM. Each cell line was then treated with test compounds at various concentrations with a final concentration of 0.5%
as §2

KRAS(G12D)-SOS1 = biological target: T1, KRAS(G12D)-SOS1 (Homo sapiens, UniProt P01116, G12D); test: KRAS(G12D)/SOS1 HTRF binding assay; settings: absence of GTP; 4° C. for 3 hr
T1 construct: purchased Cisbio 63ADK000CB16PEG
T1 sequence (P01116 1-188 isoform P01116-2 G12D): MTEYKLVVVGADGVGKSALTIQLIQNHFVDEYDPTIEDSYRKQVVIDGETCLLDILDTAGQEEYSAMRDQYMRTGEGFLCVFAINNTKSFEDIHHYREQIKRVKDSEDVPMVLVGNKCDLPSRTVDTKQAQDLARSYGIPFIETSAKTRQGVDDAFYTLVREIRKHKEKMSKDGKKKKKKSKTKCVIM
Method: Binding of test compounds to KRAS(G12D) target protein, which in turn blocks KRAS(G12D) interaction with the SOS1 protein, was measured in the absences of GTP by homogeneous time-resolved fluorescence using the KRAS-G12D/SOS1 Binding Assay Kit (Cisbio, #63ADK000CB16PEG), following the manufacturer's instructions, except as noted. 3-fold serial dilutions of each test compound were prepared ranging from 20 μM to 1.02 nM. The test compound was mixed and incubated with reaction components, incubated in a sealed plate at 4° C. for 3 hr and fluorescence was measured using a PerkinElmer Envision plate reader. The KRAS(G12D)-SOS1 IC50 values (the concentration of 50% of the maximal inhibition) were calculated using GraphPad Prism 7 software.

in vivo = settings: male, CD-1, mouse, po, 50 mg/kg
Method: as §3

Row | SMILES | bioavailability [1] [%] | IC50 (AGS cells) [nM] | IC50 (A427 cells) [nM] | other results
1 | C#Cc1c(F)ccc2cc(O)cc(-c3ncc4c(N5CC6CCC(C5)N6C(=O)C(F)(F)F)nc(OC[C@]56CCCN5C[C@@H](F)C6)nc4c3F)c12 [drawing 118] | 15.8 |  |  | 
2 | C#Cc1c(F)ccc2cc(O)cc(-c3ncc4c(N5CC6CCC(C5)N6C(=O)C(F)(F)F)nc(OCC5(CN6CCC(F)CC6)CC5)nc4c3F)c12 [drawing 116] | 12.4 |  |  | 
3 | C#Cc1c(F)ccc2cc(O)cc(-c3ncc4c(N5CC6CCC(C5)N6C(=O)C(F)(F)F)nc(OCC5(CN6CC7CC7C6)CC5)nc4c3F)c12 (stereo not drawn) [drawing 114] |  | 1 to 100 | 1000 to 10000 | 
4 | C#Cc1c(F)ccc2cc(O)cc(-c3ncc4c(N5CC6CCC(C5)N6C(=O)C(F)(F)F)nc(OC[C@]56CCCN5C[C@@H](F)C6)nc4c3F)c12 [drawing 112] |  | 1 to 100 | 1000 to 10000 | 
5 | C#Cc1c(F)ccc2cc(O)cc(-c3ncc4c(N5CC6CCC(C5)N6)nc(OCC5(CN6CC7CC7C6)CC5)nc4c3F)c12 (stereo not drawn) [drawing 115] |  | 1 to 100 | 1 to 100 | IC50 (KRAS(G12D)-SOS1): 1 to 100 nM
6 | C#Cc1c(F)ccc2cc(O)cc(-c3ncc4c(N5CC6CCC(C5)N6C(=O)C(F)(F)F)nc(OCC5(CN6CCC(F)CC6)CC5)nc4c3F)c12 [drawing 110] |  | 1 to 100 | 1 to 100 | IC50 (KRAS(G12D)-SOS1): 1 to 100 nM
7 | C#Cc1c(F)ccc2cc(O)cc(-c3ncc4c(N5CC6CCC(C5)N6)nc(OC[C@]56CCCN5C[C@@H](F)C6)nc4c3F)c12 | 0.45 |  |  | 
8 | C#Cc1c(F)ccc2cc(O)cc(-c3ncc4c(N5CC6CCC(C5)N6)nc(OCC5(CN6CCC(F)CC6)CC5)nc4c3F)c12 [drawing 111] |  | 1 to 100 | 1 to 100 | 
9 | C#Cc1c(F)ccc2cc(O)cc(-c3ncc4c(N5CC6CCC(C5)N6)nc(OCC5(CN6CC7CC7C6)CC5)nc4c3F)c12 (stereo not drawn) [drawing 121] | 0.47 |  |  | 
10 | C#Cc1c(F)ccc2cc(O)cc(-c3ncc4c(N5CC6CCC(C5)N6C(=O)C(F)(F)F)nc(OCC5(CN6CC7CC7C6)CC5)nc4c3F)c12 (stereo not drawn) [drawing 120] |  |  |  | bioavailability (in vivo): 17.4%
11 | C#Cc1c(F)ccc2cc(O)cc(-c3ncc4c(N5CC6CCC(C5)N6)nc(OCC5(CN6CCC(F)CC6)CC5)nc4c3F)c12 [drawing 117] | 0.82 |  |  | 
